This note sets out measurements from patent publication US7364741B1, “Peptides of human Papilloma virus for use in human T cell response inducing compositions” (priority 1992, dated 2008).

In one experiment the test system is HLA-A11.2. The experiment in a line: Immunochemical peptide-MHC binding assay, purified HLA-A11.2, radiolabeled probe […]. The settings on record: IC50 of standard divided by IC50 of tested peptide, cysteines synthesized as alanine. The arrangement: species or system human. The text has this:
(§1) The method utilizes purified class I molecules and radiolabeled synthetic probes based on consensus peptides. Competitor peptides tested for their binding to the class I molecules compete for this binding with the radiolabeled consensus peptides. The HLA-A1, A2.1, A3.2, A11.2, and A24 molecules were isolated from the following cell lines, respectively: the EBV (Eppstein Barr Virus) transformed cell line Steinlin, the EBV transformed cell line JY, the EBV transformed cell line GM3107, the cell line BVR and the EBV transformed cell line KT3. After large scale culture, cells were lysed in NP40 (Fluka Biochemika, Buchs, Switzerland) and the lysate was passed over two pre-columns of inactivated sepharose CL 4B and Prot A Sepharose. Class I molecules were then purified from the cell lysate by affinity chromatography using Prot A Sepharose beads conjugated with B2.23.2 (anti-HLA-B and HLA-C) and anti-human HLA. The lysate was first depleted of B and C molecules by repeated passage over the B2.23.2 column.
(§2) After two days at 23° C. the percent of MHC-bound radioactivity was measured by size exclusion chromatography on a TSK2000 gel filtration as described by Sette et al. (1992).
(§3) Probe peptides were iodinated by using the Chloramine T method described by Buus et al. (1987). The sequences of the probe peptides used for the aforementioned HLA molecules were […] (SEQ ID NO:76) for A1, […] (SEQ ID NO:77) for A2.1, […] (SEQ ID NO:78) for A3.2, […] (SEQ ID NO:79) for A11.2, and […] (SEQ ID NO:80) for A24.
(§4) Each competitor peptide was tested in two to four completely independent experiments. Since cysteine containing peptides are susceptible to (air) oxidation during synthesis and handling, these peptides were synthesized with an alanine instead of a cysteine.

A further experiment addresses T1, HLA-A3.2 (Homo sapiens, UniProt P04439).
T1 construct: endogenous in cells; host or cells: EBV transformed cell line GM3107 (protein purified from NP40 lysate)
Type of experiment: binding. To be noted: HLA-A3.2; IC50 of standard divided by IC50 of tested peptide; cysteines synthesized as alanine.
Description: as §1, §2, §3, §4

The target of a further experiment is T2, HLA-A2.1 (Homo sapiens, UniProt P04439, D140Y/D185E/D98H/E176V/E277Q/G131W/G231S/I119V/I121R/I166T/I218V/L300P/L318F/N151K/N90K/P208A/P217A/Q86G/Q94H/R138H/R169H/T345S).
T2 construct: endogenous in cells; host or cells: 174CEM.T2
Type of experiment: cell-based. To be noted: HPV16 peptides, 200 μg/ml peptide, 16 hours, 174CEM.T2 cells; for FI (Fluorescence Index): background set on 0, binding positive when ≧0.5. The protocol: Of all peptides a dilution of 1 mg/ml in 0.9% NaCl was made.
174CEM.T2 cells were cultured in Iscovel's modified Dulbecco's medium (Biochrom KG Seromed Berlin, Germany: F0465) supplemented with 100 IU/ml penicillin (Biocades Pharma, Leiderdorp, The Netherlands), 100 μg/ml kanamycin (Sigma St. Louis, USA:K-0254), 2 mM glutamine (ICN Biomedicals Inc. Costa Mesa, Calif., USA:15-801-55) and 10% fetal calf serum (FCS, Hyclone Laboratories Inc. Logan, Utah, USA:A-1115-L). Cells were cultured at a density of 2.5×10^5/ml during 3 days at 37° C., 5% CO2 in humified air.
174CEM.T2 cells were washed twice in culture medium without FCS and put in serum-free culture medium to a density of 2×10^6 cells/ml. Of this suspension 40 μl was put into a V bottomed 96 well plate (Greiner GmbH, Frickenhausen, Germany: 651101) together with 10 μl of the individual peptide dilutions (of 1 mg/ml). The end concentration is 200 μg/ml peptide with 8×10^4 174CEM.T2 cells. This solution was gently agitated for 3 minutes after which an incubation time of 16 hours at 37° C., 5% CO2 in humified air took place. Then cells were washed once with 100 μl 0.9% NaCl, 0.5% bovine serum albumin (Sigma St. Louis, USA: A-7409), 0.02% NaN3 (Merck Darmstadt, Germany:822335). After a centrifuge round of 1200 rpm the pellet was resuspended in 50 μl of saturating amounts of HLA-A2.1 specific mouse monoclonal antibody BB7.2 for 30 minutes at 4° C. Then cells were washed twice and incubated for 30 minutes with F(ab)2 fragments of goat anti-mouse IgG that had been conjugated with […] (Tago Inc Burlingame, Calif., USA: 4350) in a dilution of 1:40 and a total volume of 25 μl.
After the last incubation, cells were washed twice and fluorescence was measured at 488 nanometer on a FACScan flow-cytometer (Becton Dickinson, Franklin Lakes, N.J., USA).
The 174CEM.T2 cell line expresses “empty” and unstable HLA-A2.1 molecules that can be stabilized when a peptide is binding to the peptide presenting groove of these molecules. […] This leads to an increase in cell surface expression of the HLA-A2.1 molecule.
With background fluorescence level (without adding peptides) set on a Fluorescence Index level of 0, binding of a peptide was regarded positive when the level of fluorescence was ≧0.5.

For the next experiment, the system named is HLA-A24. Briefly: Immunochemical peptide-MHC binding assay, purified HLA-A24, radiolabeled probe AYIDNYNKF
Set-up: species or system human. The settings on record: IC50 of standard divided by IC50 of tested peptide, cysteines synthesized as alanine.
Description: as §1, §2, §3, §4

In a further experiment the target is T3, HLA-A1 (Homo sapiens, UniProt P04439, A114D/A174V/A182V/D101N/E190D/Q94H/R68K/S129P/V100A/V91M/W191G).
T3 construct: endogenous in cells; host or cells: EBV transformed cell line Steinlin (protein purified from NP40 lysate)
The experiment in a line: Immunochemical peptide-MHC binding assay, purified HLA-A1, radiolabeled probe YLEPAIAKY
The settings on record: IC50 of standard divided by IC50 of tested peptide, cysteines synthesized as alanine.
Description: as §1, §2, §3, §4

T1 sequence (P04439 25-365): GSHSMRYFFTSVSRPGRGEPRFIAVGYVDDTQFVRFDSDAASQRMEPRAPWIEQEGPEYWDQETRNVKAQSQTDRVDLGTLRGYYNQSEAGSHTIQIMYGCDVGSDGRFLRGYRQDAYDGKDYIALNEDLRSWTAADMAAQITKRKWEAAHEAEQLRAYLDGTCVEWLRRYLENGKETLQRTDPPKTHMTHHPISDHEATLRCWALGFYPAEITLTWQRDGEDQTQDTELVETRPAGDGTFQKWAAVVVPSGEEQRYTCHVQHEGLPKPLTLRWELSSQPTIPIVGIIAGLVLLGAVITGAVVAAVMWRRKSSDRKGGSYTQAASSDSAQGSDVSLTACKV
T1 sequence (P61769 21-119, further chain): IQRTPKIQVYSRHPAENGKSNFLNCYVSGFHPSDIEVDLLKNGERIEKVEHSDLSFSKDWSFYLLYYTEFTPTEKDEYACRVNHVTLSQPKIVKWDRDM

In the case of “CCKCDSTLR [residues 58-66 of HPV16 protein E7]”, the figures for the “binding ratio to standard” value in the experiment on HLA-A11.2 and with HLA-A3.2 were 0.0110 and 0.0016, respectively.

For the sequence “CMSCCRSSR [residues 143-151 of HPV16 protein E6]”, the figures for the “binding ratio to standard” value in the experiment on HLA-A11.2 and in the experiment with HLA-A3.2 were 0.0084 and 0.1800, respectively.

As for “CVYCKQQLL [HPV16 peptide 8, residues 37-45 of HPV16 protein E6]”, the “binding ratio to standard” value with HLA-A11.2 came to 0.0450; with HLA-A3.2, 0.0320. Further, the “MF (mean HLA-A2.1 fluorescence)” value with HLA-A2.1 is on record as 195.0. Further, the “FI (Fluorescence Index)” value with HLA-A2.1 came to 2.0.

Consider “CYSLYGTTL [residues 87-95 of HPV16 protein E6]”, for which the “binding ratio to standard” value in the experiment with HLA-A24 came out at 0.1200.

On to “EIDGPAGQA [residues 37-45 of HPV16 protein E7]”, for which, in the experiment with HLA-A1, the “binding ratio to standard” value came to 0.025.

Turning to “EYRHYCYSL [residues 82-90 of HPV16 protein E6]”, the “binding ratio to standard” value in the experiment with HLA-A24 is reported as 0.0460.

On to “HVDIRTLED [residues 73-81 of HPV16 protein E7]”, for which, in the experiment with HLA-A1, the “binding ratio to standard” value is 0.014.

For the sequence “HYCYSLYGT [residues 85-93 of HPV16 protein E6]”, in the experiment on HLA-A24, the “binding ratio to standard” value is given as 0.0037.

For “HYNIVTFCC [residues 51-59 of HPV16 protein E7]”, the figures for the “binding ratio to standard” value in the experiment on HLA-A11.2 and in the experiment with HLA-A3.2 were 0.0010 and 0.0260, respectively.

As to “IILECVYCK [residues 33-41 of HPV16 protein E6]”, the “binding ratio to standard” value in the experiment with HLA-A11.2 is on record as 6.7000; in the experiment with HLA-A3.2, 1.5000.

In the case of “ISEYRHYCY [residues 80-88 of HPV16 protein E6]”, the figures for the “binding ratio to standard” value in the experiment with HLA-A11.2 and in the experiment with HLA-A3.2 were 0.4300 and 0.0064, respectively.

For “IVYRDGNPY [residues 59-67 of HPV16 protein E6]”, the “binding ratio to standard” value in the experiment with HLA-A11.2 is listed as 0.4700; in the experiment with HLA-A3.2, 3.0000.

As to “KCLKFYSKI [residues 72-80 of HPV16 protein E6]”, the “binding ratio to standard” value in the experiment on HLA-A24 worked out at 0.1100.

Regarding “KISEYRHYC [HPV16 peptide 9, residues 79-87 of HPV16 protein E6]”, the “binding ratio to standard” value in the experiment on HLA-A11.2 was 0.0076. For the same sequence, the “binding ratio to standard” value with HLA-A3.2 amounted to 0.0044. Besides, in the experiment with HLA-A2.1, the “MF (mean HLA-A2.1 fluorescence)” value is recorded as 211.7 and the “FI (Fluorescence Index)” value was 2.2.

For the sequence “LIRCINCQK [residues 107-115 of HPV16 protein E6]”, the “binding ratio to standard” value in the experiment on HLA-A11.2 stood at 0.0120; with HLA-A3.2, 3.7000.

With “LLRREVYDF [residues 44-52 of HPV16 protein E6]”, the “binding ratio to standard” value with HLA-A24 amounted to 0.0023.

On to “MHQKRTAMF [residues 1-9 of HPV16 protein E6]”, for which the “binding ratio to standard” value in the experiment with HLA-A24 is reported as 0.0049.

Consider MSCCRSSRT, for which the “binding ratio to standard” value at HLA-A1 stood at 0.019.

Turning to “PYAVCDKCL [residues 66-74 of HPV16 protein E6]”, the “binding ratio to standard” value in the experiment with HLA-A24 came out at 0.0055.

On to “QQLLRREVY [residues 42-50 of HPV16 protein E6]”, for which the “binding ratio to standard” value in the experiment on HLA-A11.2 stood at 0.0084; with HLA-A3.2, 0.0058.

With “RAHYNIVTF [residues 49-57 of HPV16 protein E7]”, in the experiment with HLA-A24, the “binding ratio to standard” value is reported as 0.0670.

For the sequence “RFHNIRGRW [residues 131-139 of HPV16 protein E6]”, the “binding ratio to standard” value in the experiment with HLA-A24 is reported as 0.1000.

On to “SCCRSSRTR [residues 145-153 of HPV16 protein E6]”, for which the results for the “binding ratio to standard” value in the experiment with HLA-A11.2 and in the experiment with HLA-A3.2 were 0.0330 and 0.0200, respectively.

For “TTDLYCYEQ [residues 19-27 of HPV16 protein E7]”, in the experiment with HLA-A1, the “binding ratio to standard” value was found to be 0.023.

Take “VCDKCLKFY [residues 69-77 of HPV16 protein E6]”: the “binding ratio to standard” value in the experiment on HLA-A11.2 amounted to 0.0030; with HLA-A3.2, 0.0025.

As for “VYCKQQLLR [residues 38-46 of HPV16 protein E6]”, the “binding ratio to standard” value in the experiment on HLA-A11.2 is 0.0022; in the experiment with HLA-A3.2, 0.0012; in the experiment on HLA-A24 it was 0.0011.

With “VYDFAFRDL [residues 49-57 of HPV16 protein E6]”, the “binding ratio to standard” value in the experiment on HLA-A24 amounted to 0.0610.

Turning to “WTGRCMSCC [residues 139-147 of HPV16 protein E6]”, in the experiment with HLA-A1, the “binding ratio to standard” value is 0.020.

Regarding “YAVCDKCLK [residues 67-75 of HPV16 protein E6]”, the “binding ratio to standard” value turned out to be 0.0074 in the experiment on HLA-A11.2 and 0.0012 with HLA-A3.2.

Take “YNIVTFCCK [residues 52-60 of HPV16 protein E7]”: the “binding ratio to standard” value in the experiment on HLA-A11.2 is given as 0.0060; with HLA-A3.2, 0.0067.

For the sequence “YRDGNPYAV [residues 61-69 of HPV16 protein E6]”, in the experiment with HLA-A1, the “binding ratio to standard” value amounted to 0.008.
